Assays:
[1] = Thermodynamic solubility, shake flask method; assay type: physicochemical; settings: PBS buffer; PBS pH 7.4, 24 h at 37°C
Experimental: (§1) APHAD S.r.l (Buccinasco, MI, Italy) performed all evaluations. Detailed protocols are reported in the extended methods section.
Thermodynamic solubility. The shake flask method measured the thermodynamic solubility of K4 and K5 in PBS buffers at pH 7.4. A saturated solution of the compounds was prepared by incubating the 2 compounds in PBS buffer for 24 h at 37°C under agitation. At the end of the incubation, samples were centrifuged, two aliquots were diluted in acetonitrile (CAN), and each sample was then injected into LC-MS/MS (ESI interface) and quantified on a calibration curve prepared by sequential dilution in ACN. Samples were analyzed on UPLC Acquity (Waters) interfaced with API 3200 (AB Sciex) Triple Quadrupole Mass spectrometer. For K4, a Synergy Polar C18 column was used (50x2, 1mm 5µm, Phenomenex, Temp 35°C, Inj volume 10 µL, mobile phase A: water +0.1% FA, and phase B: ACN 0.1% FA, gradient: 5%-98% B, flow: 0.3 mL/min). For K5, a Gemini NX C18 column was used (50x2, 1mm 5µm, Phenomenex, Temp 35°C, Inj volume 10 µL, mobile phase A: 5mM ammonium formate +0.1% FA, and phase B: MeOH +5%, gradient: 5%-98% B, flow: 0.3 mL/min).

[2] = Phase I stability in mouse liver microsomes; assay type: in vitro ADME; settings: 1 µM, 0.5 mg/mL microsomes
Experimental: as §1
(§2) Phase I stability in human and mouse liver microsomes. The metabolic stability of K4 and K5 was evaluated after incubation with mouse and human liver microsomes. Briefly, the 2 compounds were dissolved in DMSO and pre-incubated, at the final concentration of 1µM, for 10 min at 37°C in potassium phosphate buffer 50 mM, pH 7.4, 3 mM MgCl2, with mouse and human liver microsomes (Sigma) at the final concentration of 0.5 mg/mL. After the pre-incubation period, reactions were started by adding the cofactors mixture (NADP, Glc6P, Glc6P-DH in 2% Sodium bicarbonate); samples were taken at time 0, 10, 20, 30, and 60 min, and added to ACN with Verapamil 0.1 µM as Internal Standard (IS) to stop the reaction. After centrifugation, the supernatants were analyzed using LC-MS/MS. A control sample without cofactors was added to check the stability of test compounds in the matrix after 60 min. 7-Ethoxycoumarin (7-EC) and propranolol were added as positive reference standards. Samples were analyzed on Acquity UPLC (Waters) coupled with an API 3200 Triple Quadrupole ABSciex. […] The percent of the area of the test compound remaining at the various incubation times was calculated based on the area of the compound at time 0 min. […]

[3] = Phase I stability in human liver microsomes; assay type: in vitro ADME; settings: 1 µM, 0.5 mg/mL microsomes
Experimental: as §1, §2

HSP90α = HSP90α (Homo sapiens, UniProt P07900); assay: HSP90 N-Terminal Domain Assay Kit, fluorescence polarization competition with FITC-Geldanamycin; assay type: binding; design: purchased BPS Bioscience 50293; settings: dose-response 1 pM to 10 μM, n = 3, extrapolated with GraphPad Prism; read-out: HSP90α inhibition IC50
Experimental: HSP90‐directed inhibitory activity was assessed employing the HSP90 N‐Terminal Domain Assay Kit (BPS Bioscience) according to the manufacturer's instructions. The fluorescence intensity was measured with a multiplate reader (Victor Nivo‐Perkin Elmer). The IC50 was calculated by analyzing the data using GraphPad Prism 10 software.
HSP90 inhibition activity assay. […] […] […] Data are the percentage of residual enzyme activity relative to the solvent (DMSO). The IC50s were calculated by analyzing the data using GraphPad Prism 10 software.

SMILES	solubility thermodynamic at 24 h [1] [µg/mL]	clearance in mouse microsomes [2]	metabolic stability in human microsomes [3]	IC50 (HSP90α) [nM]
Cc1ccccc1-n1c(=O)n(Cc2ccccc2)c(=O)c2[nH]cnc21 [Compound K5, 1-benzyl-3-(2-methylphenyl)-7H-purine-2,6-dione]	~200	medium clearance	stable	111
CC(C)(C)S(=O)(=O)C/C(N)=N/OS(=O)(=O)c1ccc(F)cc1F [Compound K4, (Z)-N'-[(2,4-difluorobenzenesulfonyl)oxy]-2-(2-methylpropane-2-sulfonyl)ethanimidamide]	~400	medium clearance	stable	155
